Test results: the METLIN SMRT retention time set (Domingo-Almenara et al. 2019)

Experiment: gradient 5% acetonitrile 3 min, to 50% in 2 min, to 85% in 15 min, held 3 min, 100 µL/min
Settings: column: Zorbax Extend-C18 2.1 x 50 mm; eluents: water / acetonitrile, 0.1% formic acid
Procedure, shortened: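 Retention time was recorded from adduct peaks, which were picked computationally and each inspected manually. Pure standards ran in mixtures of ~100 molecules on HPLC coupled to a quadrupole time-of-flight mass spectrometer, in positive and negative ionization mode, through a Zorbax Extend-C18 column (2.1 × 50 mm, 1.8 μm) at 100 μL/min. Eluents were water and acetonitrile, each with 0.1% formic acid.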

Compound	RP-LC retention time [s]
COc1ccc(S(=O)(=O)NC2CCN(C(=O)Cc3c[nH]c4ccccc34)CC2)cc1	766
COc1ccc(NC(=O)NC2CCN(c3ccccc3)C2=O)cc1OC (stereo not drawn)	683
CN1CCN(C(c2ccncc2)c2c(NC(=O)c3ccco3)sc3c2CCCC3)CC1 (stereo not drawn)	636
CCC1CCCCN1C(=O)CN1CCCN(Cc2cc(C)ccc2C)S1(=O)=O (stereo not drawn)	1150
CCN(CC)C(=O)N1CC(Oc2ccccc2-c2nc(-c3cnccn3)no2)C1	784
CCOc1ccc(C2c3[nH]c4ccccc4c3CCN2C(=O)COC)cc1 (stereo not drawn)	981
O=C(Nc1nc2c(s1)COCC2)c1cccs1	664
CCOc1ccc(-c2noc(Cn3c(=O)n(CC(C)C)c(=O)c4ccccc43)n2)cc1	1210
CCc1cccc(C)c1Nc1c(-c2ccc(OC)cc2)nc2nc(C)cc(C)n12	781
CCCN(CCC)S(=O)(=O)c1ccc(C(=O)Nc2nc(-c3ccc(OC)cc3)c(C)s2)cc1	1330
Cc1cc(NC(=O)C2CCN(C(=O)C3Sc4ccccc4NC3=O)CC2)ccc1Br (stereo not drawn)	901
CCCCCn1c(=O)c2ccccc2n(Cc2nc(-c3ccc(OC(F)(F)F)cc3)no2)c1=O	739
COc1ccc(-c2noc(C3CC(=O)N(c4ccc(Cl)cc4)C3)n2)cc1 (stereo not drawn)	1040
CCOC(=O)c1nc(N(Cc2cccs2)C2CCCC2)c2ccccc2n1	1120
CCc1cccc(NC(=O)Cn2c(=O)nc(N3CCCCC3)c3ccccc32)c1	754
Cc1ccc2sc(N(CCCn3ccnc3)C(=O)c3ccc4c(c3)OCCO4)nc2c1C	636
CC(C)S(=O)(=O)c1cc2c(cc1NC(=O)c1ccc(Cl)cc1)n(C)c(=O)n2C	936
CCn1c(C(=O)NCCC2=CCCCC2)cc2sc(Cl)cc21	1310
CCc1nc(N)n(CC(=O)NCc2ccc(Cl)cc2)c(=O)c1C	645
CCn1c(=O)c(N2CCN(C(=O)Nc3ccccc3Cl)CC2)nc2ccccc21	987
COc1ccc(CN2C=C(C(=O)OCc3noc(-c4ccc(OC)cc4)n3)C(C)=NS2(=O)=O)cc1	1110
Cc1cccc(OCC(O)Cn2c(C3CC3)nc3ccccc32)c1 (stereo not drawn)	685

Compound	RP-LC retention time [s]
Cc1ccc(CN(C(=O)C(C)Oc2ccc(Cl)c(C)c2)C2CCS(=O)(=O)C2)o1 (stereo not drawn)	1020
O=C(c1ccccc1OCc1nc(-c2ccccc2)no1)N1CCCCC1	950
CN(C)CCn1c2c(c(SCC(=O)Nc3ccc(F)c(F)c3)nc1=O)CCC2	638
CCN1CCCC(C(=O)NCc2cccc(OC)c2OC)(c2ccccc2)CC1 (stereo not drawn)	660
O=C(Nc1cc(-c2ccsc2)no1)c1cccc(F)c1	951
COc1ccc(Cc2nc(-c3ccc4c(c3)ncn4CCC(=O)N3CCCC3)no2)cc1	716
CC(C)(C)OC(=O)NCc1nnc(C(F)(F)F)n1-c1ccccc1	773
O=C(NCCCn1c(-c2ccncc2)nc2cccnc21)NCc1ccc(F)cc1	627
COc1ccc2[nH]cc(CCNC(=O)c3ccc(NC(=O)C4=CSCCO4)cc3)c2c1	800
O=C(NCCn1nc(-c2ccco2)ccc1=O)c1ccc2ncsc2c1	610
Cc1ccc(NS(=O)(=O)c2cc(-c3cc(C(F)(F)F)on3)sc2C)cc1	1170
O=C(c1ccc(F)cc1)N1CCC(CCNS(=O)(=O)c2cc(F)ccc2F)CC1	870
O=C(c1cn2cc(Cl)ccc2n1)N1CCCCCC1	718
NC(N)=NCc1cccc(I)c1	442
COc1ccc(NC(=O)Cn2c(=O)n(-c3ccc(C)cc3)c(=O)c3c2cc(C)n3C)cc1Cl	891
COc1cc(C(=O)C(=O)c2ccc(O)c(OC)c2)ccc1O	758
COc1ccc(S(=O)(=O)N2CCc3nc(-c4ccccc4)ncc3C2)cc1Cl	1090
Cc1ccc2c(c1)N(C(=O)Cn1c(C(C)C)nc3c(c1=O)CCN(Cc1ccccc1)C3)CCO2	787
CCc1noc(-c2ccnc(-n3cnc(C(=O)NCc4ccccc4C)c3)c2)n1	939
COc1ccc(OC)c(NC(=O)Nc2cccc(-c3nccnc3N3CCCC3)c2)c1	916
Cc1ccc2c(Nc3ccc(F)cc3F)c(C(=O)N3CCCC3)cnc2n1	596
COc1ccccc1N1CCN(C[C@@H](C(=O)NC(C)(C)C)c2ccccc2)CC1	812

Compound	RP-LC retention time [s]
CN1CCc2cc(C(CNS(=O)(=O)c3ccccc3F)N3CCCC3)ccc21 (stereo not drawn)	573
CCCCOP(=O)(OCCCC)C1(C)CC(=O)CC(C)(C)C1 (stereo not drawn)	1100
COc1ccc(N2CCN(c3cc(SCC(=O)Nc4ccc(C)cc4C)ncn3)CC2)cc1	1020
CCSc1nnc(NC(=O)CSc2nnc(COc3ccccc3)o2)s1	806
O=C(N[C@H]1C[C@@H]2C[C@H]1CN2C(=O)c1cc2c(s1)CCCC2)c1cccnc1	731
CCC(C)NC(=O)N1CCN(Cc2nc3cccnc3n2-c2cc(C)cc(C)c2)CC1 (stereo not drawn)	672
CSc1cccc(NC(=O)c2cn3c(n2)CCCC3)c1	630
CCN1C(=O)C2(CCN(S(=O)(=O)Cc3ccccc3Cl)CC2)c2ccccc21	1030
Cn1nc(C(=O)NCc2ccc3c(c2)OCO3)c2c1CCN(C(=O)C1CC1)C2	716
Cc1noc(C)c1CC(=O)N(C)C1CCc2nn(CC3CC3)c(=O)n2CC1 (stereo not drawn)	630
COc1ccc(N2C(=O)CN(Cc3ccccc3C)[C@H]3CS(=O)(=O)C[C@H]32)cc1Cl	879
COc1ccc(NC(=O)Cc2csc(NC(=O)c3ccc(=O)[nH]c3)n2)cc1Cl	637
O=c1c2c(CO)c(-c3ccccc3)nn2ccn1Cc1ccccc1Cl	961
Cc1nc(-c2csc(S(=O)(=O)NC3CCCCCC3)c2)sc1C	1150
O=C(NC1CCCCC1)c1nc(-c2ccc(N3CCCC3)cc2)no1	1160
COc1ccc(-c2c(C)noc2NC(C)=O)cc1S(=O)(=O)Nc1cccc(SC)c1	779
O=C1CCC(=O)N1CCc1c[nH]c2ccc(OCc3ccccc3)cc12	1030
COc1cccc(-c2noc(C3CCCN3C(=O)Nc3cccc(C)c3C)n2)c1 (stereo not drawn)	925
CCc1noc2nc(C)n(CC(=O)NCC(C)c3ccccc3)c(=O)c12 (stereo not drawn)	835
CC1CCC2(CC1)NC(=O)N(CC(=O)Nc1ccc3c(c1)OCCO3)C2=O (stereo not drawn)	783
Cc1ccc(Cn2c(=O)n(CCNC(=O)c3cnccn3)c3ncccc32)cc1	737
O=C(NCC(O)(c1ccccc1)C(F)(F)F)NC1CCCCC1 (stereo not drawn)	879

Compound	RP-LC retention time [s]
COc1ccc(C(CC(=O)N2CCN(C)CC2)N2Cc3ccccc3C2=O)cc1OC (stereo not drawn)	609
CCc1nnc2c(=O)n(CC(=O)NCc3ccccc3F)c3cccnc3n12	685
CC(NC(=O)Cc1cn(C)c2ncccc12)c1ccc(F)cc1 (stereo not drawn)	695
COCCNC(=O)N1c2ccccc2NC2=C(C(=O)CC(C)(C)C2)C1c1ccc(OC)cc1 (stereo not drawn)	704
Cc1cc(F)ccc1NC(=O)C1CCCN1S(=O)(=O)c1cc2c(cc1C)NC(=O)CO2 (stereo not drawn)	761
Cc1cccc(N2CCN(S(=O)(=O)c3ccc(-c4nnc(C5CC5)o4)o3)CC2)c1	1020
CSc1c(N(C)C)c(=O)c1=S	756
CCN1CCN(S(=O)(=O)c2ccc(Cl)c(-c3nnc(-c4ccc(OC)cc4)o3)c2)CC1	677
COc1ccc(NC(=O)N2CCCC2c2nc(-c3ccccc3)no2)cc1 (stereo not drawn)	876
COc1ccc(NC(=O)C(C)C2CCN(C(=O)Nc3ccc(Cl)cc3)CC2)c(OC)c1 (stereo not drawn)	898
O=C(C1CCN(S(=O)(=O)c2ccc(-c3noc(-c4ccccn4)n3)cc2)CC1)N1CCCC1	792
Cn1cc(-c2ccncc2)cc1C(=O)N1CCC2(CC1)OCCO2	562
O=C(NC1CCCCC1)N1CCC(c2nc(C3CCOCC3)no2)CC1	733
COc1ccc2c(c1)C1(CCN(C(=O)COc3cccc(C)c3)C1)C(=O)N2 (stereo not drawn)	668
COC(=O)C1=CN(c2ccc(OC)cc2OC)c2cc(F)ccc2S1(=O)=O	875
O=C(CN1c2ccc(F)cc2-c2ccccc2S1(=O)=O)NCc1ccccc1	939
CSc1cccc(N2C(=O)C3N=NN(Cc4nc(-c5ccccc5)no4)C3C2=O)c1 (stereo not drawn)	992
CCn1cc(S(=O)(=O)N2CC(n3cc(C(=O)N4CCOCC4)nn3)C2)cn1	632
Cn1nc(C(=O)N2CCCC(C(=O)Nc3ccccc3)C2)c2c1CCN(C(=O)CC1CCCC1)C2 (stereo not drawn)	800
O=C(NCc1cccs1)C1CCCN(c2nc3ccsc3c(=O)n2-c2ccc(F)cc2)C1 (stereo not drawn)	843
COC(=O)c1cccc(C(=O)N2CCN(c3cc(C)ccc3C)CC2)n1	959
Cc1nc2cc(N3CCC(C(=O)Nc4ccc(Cl)cc4)CC3)cnc2nc1C	790
